# Source: article PMC7006505, “Chemical biology tools for probing transcytosis at the blood–brain barrier” (Chemical Science, 2019)
# Experiments:
# [1] = target: T1, extracellular subunit of TfR recombinant human protein, N-His Tag (Homo sapiens, UniProt P02786); experiment: TfR binding ELISA (FAM-labelled shuttles on TfR-coated plates); conditions: plates coated with 1 µg/ml TfR, 1 h at room temp in PBS, anti-FAM HRP antibody (streptavidin peroxidase for Tf-biotin), absorption 450 nm, read-out: apparent binding affinity (EC50) to TfR
# T1 construct: extracellular subunit of TfR; purchased Life Technologies
# T1 sequence (P02786 89-760 limits assumed): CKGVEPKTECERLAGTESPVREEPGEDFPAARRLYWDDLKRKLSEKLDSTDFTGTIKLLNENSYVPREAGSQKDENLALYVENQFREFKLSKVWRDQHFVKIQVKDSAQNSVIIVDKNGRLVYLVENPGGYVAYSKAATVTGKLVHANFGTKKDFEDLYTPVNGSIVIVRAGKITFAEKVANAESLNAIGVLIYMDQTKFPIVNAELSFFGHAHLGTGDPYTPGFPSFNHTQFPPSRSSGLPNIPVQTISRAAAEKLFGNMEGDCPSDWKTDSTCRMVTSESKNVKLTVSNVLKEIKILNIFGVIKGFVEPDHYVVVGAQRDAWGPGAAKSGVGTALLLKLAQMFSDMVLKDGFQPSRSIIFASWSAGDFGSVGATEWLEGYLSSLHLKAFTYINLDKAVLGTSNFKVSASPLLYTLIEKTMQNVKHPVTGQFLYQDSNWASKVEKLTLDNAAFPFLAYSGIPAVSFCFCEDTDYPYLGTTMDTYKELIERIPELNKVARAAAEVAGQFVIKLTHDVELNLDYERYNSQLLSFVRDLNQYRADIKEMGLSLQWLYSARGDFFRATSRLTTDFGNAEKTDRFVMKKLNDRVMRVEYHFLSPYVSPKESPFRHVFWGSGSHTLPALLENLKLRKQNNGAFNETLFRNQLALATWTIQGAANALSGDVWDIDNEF
# Protocol: To evaluate functionality of the conjugated peptides, in vitro analyses were performed. TfR binding was assessed through an ELISA format, whereby FAM-conjugated shuttles were serially diluted and added to plates that were coated with TfR protein. FAM-labelled vehicles were detected by an anti-FAM HRP-conjugated antibody.
# The procedure was performed at room temp on a shaking platform using PBS-Tween (0.05%) for the wash steps. Nickel coated clear 96-well plates (Pierce) was coated overnight with 1 µg/ml of the extracellular subunit of TfR recombinant human protein, N-His Tag (Life Technologies) in 0.5 M Carbonate buffer. The plates were washed (5 × 150 µL) and blocked for 1 h with PBS containing 1% BSA. 100 µL of the compound dilutions in PBS were transferred to the plate and incubated for 1 h at room temp, after which time the plates were washed (5 × 150 µL). A Goat anti-FAM peroxidase labelled antibody (Abcam, 1:100 000) was added to the wells and incubated for 30 min. Following 6 washes, 50 µL of TMB Substrate Solution (Sigma) was added per well and incubated for a further 30 min. After addition of 50 µL of 2 M sulphuric acid to each well , receptor complexes were detected by measuring absorption at 450 nm. The procedure for determining the binding affinity of biotin labelled Tf (Sigma) was similar except streptavidin peroxidas e (ThermoFisher Scientific) (1:20 000) was used to measure the Tf -receptor complex.
# Imaging and Immunochemistry
# Colocalis ation of delivery scaffolds with LAMP1 and Tf -A647 bEND.3 cells were seeded at a density of 1 x 10^4 cells/we ll in 8-well glass plates (ibidi ) coated with rat tail collagen. After 3 days at 100 % confluence, cells were washed with PBS (3 × 180 µL), and co-incubated with brain delivery scaffolds (5 µM) and Tf-A647 (50 µg/ml) at 37 °C for 2 h in FluoroBrite DMEM media (Thermofisher). Cells were washed with PBS (3 × 180 µL), then fixed with 4 % paraformaldehyde for 15 min at room temperature. […]
# [2] = target: TfR; conditions: micromolar affinity; read-out: affinity towards the receptor (TfR); cited from earlier work
# Source text: To enable targeted brain delivery, we chose to functionalise our scaffold with established ligands that engage the transferrin receptor (TfR) and low-density lipoprotein-receptor related protein (LRP1). The relative abundance of these receptors on brain endothelial, alongside their high transport capacity, made them ideal targets for RMT mediated delivery and both have been actively explored in research.[8],[14]–[16]
EC50 [1] [nM],Molecule,Kd [2] [nM]
11.8 ± 1.11,CC[C@H](C)[C@H](NC(=O)[C@H](C)NC(=O)[C@H](Cc1c[nH]cn1)NC(=O)[C@@H](N)CCCCn1cc(C[C@H](NC(=O)[C@H](CCCNC(=N)N)NC(=O)[C@@H](NC(=O)[C@@H]2CCCN2C(=O)[C@@H]2CCCN2C(=O)[C@@H]2CCCN2C(=O)[C@H](CC(C)C)NC(=O)[C@H](CCCNC(=N)N)NC(=O)[C@@H](NC(=O)[C@@H]2CCCN2C(=O)[C@@H]2CCCN2C(=O)[C@@H]2CCCN2C(=O)[C@H](Cc2cn(CCCC[C@H](N)C(=O)N[C@@H](Cc3c[nH]cn3)C(=O)N[C@@H](C)C(=O)N[C@H](C(=O)N[C@@H](Cc3ccc(O)cc3)C(=O)N3CCC[C@H]3C(=O)N[C@@H](CCCNC(=N)N)C(=O)N[C@@H](Cc3c[nH]cn3)C(N)=O)[C@@H](C)CC)nn2)NC(=O)[C@H](CCCNC(=N)N)NC(=O)[C@@H](NC(=O)c2ccc3c(c2)C(=O)OC32c3ccc(O)cc3Oc3cc(O)ccc32)C(C)C)C(C)C)C(C)C)C(=O)N2CCC[C@H]2C(=O)N2CCC[C@H]2C(=O)N2CCC[C@H]2C(N)=O)nn1)C(=O)N[C@@H](Cc1ccc(O)cc1)C(=O)N1CCC[C@H]1C(=O)N[C@@H](CCCNC(=N)N)C(=O)N[C@@H](Cc1c[nH]cn1)C(N)=O [PPII(L3X;L15X)TfRL2],–
12.7 ± 1.37,CC[C@H](C)[C@H](NC(=O)[C@H](C)NC(=O)[C@H](Cc1c[nH]cn1)NC(=O)[C@@H](N)CCCCn1cc(C[C@H](NC(=O)[C@@H]2CCCN2C(=O)[C@@H]2CCCN2C(=O)[C@@H]2CCCN2C(=O)[C@H](CC(C)C)NC(=O)[C@H](CCCNC(=N)N)NC(=O)[C@@H](NC(=O)[C@@H]2CCCN2C(=O)[C@@H]2CCCN2C(=O)[C@@H]2CCCN2C(=O)[C@H](Cc2cn(CCCC[C@H](N)C(=O)N[C@@H](Cc3c[nH]cn3)C(=O)N[C@@H](C)C(=O)N[C@H](C(=O)N[C@@H](Cc3ccc(O)cc3)C(=O)N3CCC[C@H]3C(=O)N[C@@H](CCCNC(=N)N)C(=O)N[C@@H](Cc3c[nH]cn3)C(N)=O)[C@@H](C)CC)nn2)NC(=O)[C@H](CCCNC(=N)N)NC(=O)[C@@H](NC(=O)c2ccc3c(c2)C(=O)OC32c3ccc(O)cc3Oc3cc(O)ccc32)C(C)C)C(C)C)C(=O)N[C@@H](CCCNC(=N)N)C(=O)N[C@@H](CC(C)C)C(=O)N2CCC[C@H]2C(=O)N2CCC[C@H]2C(=O)N2CCC[C@H]2C(N)=O)nn1)C(=O)N[C@@H](Cc1ccc(O)cc1)C(=O)N1CCC[C@H]1C(=O)N[C@@H](CCCNC(=N)N)C(=O)N[C@@H](Cc1c[nH]cn1)C(N)=O [PPII(L3X;V13X)TfRL2],–
–,HAIYPRH [TfRL2],440000

Molecule,EC50 [1] [nM],Kd [2] [nM]
Tf-biotin: biotin labelled transferrin (Sigma) [reference compound],20.9 ± 2.1,–
